According to the NIST ThermoML archive (doi:10.1021/je301095j):

Test: xn = mol fraction of the nth substance listed
Conditions: 101 kPa, Liquid; for kinematic viscosity: Capillary tube (Ostwald / Ubbelohde) method; for mass density: Vibrating tube method

COCCOC [1,2-dimethoxyethane] + CCCCCCCCO
Conditions | kinematic viscosity [m2/s] | mass density [kg/m3]
283.15 K, x1 = 0.06697 | 1.152e-05 | 833.91
283.15 K, x1 = 0.1224 | 8.912e-06 | 835.41
283.15 K, x1 = 0.2171 | 5.951e-06 | 838.23
283.15 K, x1 = 0.3108 | 4.177e-06 | 841.31
283.15 K, x1 = 0.4036 | 3.014e-06 | 844.65
283.15 K, x1 = 0.5046 | 2.16e-06 | 848.72
283.15 K, x1 = 0.593 | 1.65e-06 | 852.66
283.15 K, x1 = 0.6949 | 1.225e-06 | 857.74
283.15 K, x1 = 0.7907 | 9.43e-07 | 863.1
283.15 K, x1 = 0.8983 | 7.18e-07 | 870.05
283.15 K, x1 = 0.9329 | 6.62e-07 | 872.53
293.15 K, x1 = 0.06547 | 8.238e-06 | 826.71
293.15 K, x1 = 0.1085 | 6.898e-06 | 827.8
293.15 K, x1 = 0.208 | 4.672e-06 | 830.48
293.15 K, x1 = 0.3098 | 3.277e-06 | 833.51
293.15 K, x1 = 0.4069 | 2.39e-06 | 836.71
293.15 K, x1 = 0.5036 | 1.79e-06 | 840.25
293.15 K, x1 = 0.5981 | 1.37e-06 | 844.1
293.15 K, x1 = 0.6905 | 1.07e-06 | 848.29
293.15 K, x1 = 0.7963 | 8.12e-07 | 853.72
293.15 K, x1 = 0.896 | 6.42e-07 | 859.6
293.15 K, x1 = 0.9434 | 5.8e-07 | 862.69
303.15 K, x1 = 0.05281 | 6.333e-06 | 819.29
303.15 K, x1 = 0.2029 | 3.707e-06 | 822.86
303.15 K, x1 = 0.2197 | 3.499e-06 | 823.3
303.15 K, x1 = 0.299 | 2.72e-06 | 825.44
303.15 K, x1 = 0.3826 | 2.122e-06 | 827.89
303.15 K, x1 = 0.4984 | 1.531e-06 | 831.64
303.15 K, x1 = 0.6107 | 1.14e-06 | 835.78
303.15 K, x1 = 0.6969 | 9.2e-07 | 839.34
303.15 K, x1 = 0.8038 | 7.15e-07 | 844.34
303.15 K, x1 = 0.892 | 5.86e-07 | 849.04
303.15 K, x1 = 0.935 | 5.35e-07 | 851.56
313.15 K, x1 = 0.05472 | 4.688e-06 | 812.24
313.15 K, x1 = 0.1071 | 3.922e-06 | 813.31
313.15 K, x1 = 0.2145 | 2.8e-06 | 815.67
313.15 K, x1 = 0.2882 | 2.251e-06 | 817.43
313.15 K, x1 = 0.4028 | 1.643e-06 | 820.44
313.15 K, x1 = 0.5028 | 1.27e-06 | 823.38
313.15 K, x1 = 0.5955 | 1.008e-06 | 826.4
313.15 K, x1 = 0.6897 | 8.07e-07 | 829.8
313.15 K, x1 = 0.7898 | 6.45e-07 | 833.92
313.15 K, x1 = 0.8945 | 5.16e-07 | 838.85
313.15 K, x1 = 0.9681 | 4.44e-07 | 842.83

COCCOC [1,2-dimethoxyethane] + CCCCCO
Conditions | kinematic viscosity [m2/s] | mass density [kg/m3]
283.15 K, x1 = 0.04484 | 5.31e-06 | 824.28
283.15 K, x1 = 0.07064 | – | 825.63
283.15 K, x1 = 0.1021 | 4.09e-06 | 827.27
283.15 K, x1 = 0.2104 | 2.73e-06 | 833.01
283.15 K, x1 = 0.3077 | 2.01e-06 | 838.24
283.15 K, x1 = 0.4078 | 1.54e-06 | 843.7
283.15 K, x1 = 0.4902 | 1.27e-06 | 848.25
283.15 K, x1 = 0.5751 | – | 853
283.15 K, x1 = 0.712 | 8.27e-07 | 860.78
283.15 K, x1 = 0.7978 | 7.25e-07 | 865.75
283.15 K, x1 = 0.8137 | – | 866.69
283.15 K, x1 = 0.8957 | 6.35e-07 | 871.5
283.15 K, x1 = 0.9347 | – | 873.81
283.15 K, x1 = 0.9473 | 5.96e-07 | 874.57
293.15 K, x1 = 0.04837 | 3.98e-06 | 816.95
293.15 K, x1 = 0.07064 | – | 818.04
293.15 K, x1 = 0.09244 | 3.32e-06 | 819.11
293.15 K, x1 = 0.1962 | – | 824.24
293.15 K, x1 = 0.2048 | 2.24e-06 | 824.66
293.15 K, x1 = 0.3078 | 1.65e-06 | 829.83
293.15 K, x1 = 0.408 | 1.28e-06 | 834.94
293.15 K, x1 = 0.497 | 1.05e-06 | 839.55
293.15 K, x1 = 0.595 | 8.65e-07 | 844.67
293.15 K, x1 = 0.6985 | 7.25e-07 | 850.18
293.15 K, x1 = 0.7088 | – | 850.73
293.15 K, x1 = 0.7978 | 6.17e-07 | 855.54
293.15 K, x1 = 0.8137 | – | 856.41
293.15 K, x1 = 0.896 | 5.4e-07 | 860.92
293.15 K, x1 = 0.9071 | – | 861.54
293.15 K, x1 = 0.9541 | 5.01e-07 | 864.14
303.15 K, x1 = 0.04441 | 3.14e-06 | 809.26
303.15 K, x1 = 0.1118 | 2.45e-06 | 812.32
303.15 K, x1 = 0.1947 | 1.89e-06 | 816.15
303.15 K, x1 = 0.3088 | 1.39e-06 | 821.48
303.15 K, x1 = 0.4056 | 1.11e-06 | 826.06
303.15 K, x1 = 0.4948 | 9.29e-07 | 830.35
303.15 K, x1 = 0.6215 | – | 836.52
303.15 K, x1 = 0.7076 | 6.5e-07 | 840.79
303.15 K, x1 = 0.8038 | 5.69e-07 | 845.62
303.15 K, x1 = 0.8519 | – | 848.06
303.15 K, x1 = 0.8998 | 5.08e-07 | 850.52
303.15 K, x1 = 0.9524 | 4.8e-07 | 853.23
313.15 K, x1 = 0.06014 | 2.34e-06 | 802.42
313.15 K, x1 = 0.0969 | 2.08e-06 | 803.97
313.15 K, x1 = 0.1159 | – | 804.76
313.15 K, x1 = 0.2221 | – | 809.31
313.15 K, x1 = 0.3249 | 1.13e-06 | 813.76
313.15 K, x1 = 0.4049 | 9.58e-07 | 817.27
313.15 K, x1 = 0.4955 | 8.09e-07 | 821.28
313.15 K, x1 = 0.599 | 6.82e-07 | 825.94
313.15 K, x1 = 0.7001 | 5.86e-07 | 830.56
313.15 K, x1 = 0.801 | 5.16e-07 | 835.25
313.15 K, x1 = 0.9031 | 4.59e-07 | 840.05
313.15 K, x1 = 0.9604 | 4.34e-07 | 842.78

COCCOC [1,2-dimethoxyethane] + CCO
Conditions | kinematic viscosity [m2/s] | mass density [kg/m3]
283.15 K, x1 = 0.05379 | 1.552e-06 | 805.91
283.15 K, x1 = 0.09719 | 1.381e-06 | 811.83
283.15 K, x1 = 0.2113 | 1.08e-06 | 825.56
283.15 K, x1 = 0.2968 | 9.35e-07 | 834.32
283.15 K, x1 = 0.4056 | 8.09e-07 | 843.94
283.15 K, x1 = 0.4865 | 7.45e-07 | 850.18
283.15 K, x1 = 0.5971 | 6.82e-07 | 857.71
283.15 K, x1 = 0.6948 | 6.38e-07 | 863.49
283.15 K, x1 = 0.8257 | 5.98e-07 | 870.24
283.15 K, x1 = 0.8749 | 5.83e-07 | 872.52
283.15 K, x1 = 0.9456 | 5.71e-07 | 875.57
293.15 K, x1 = 0.05746 | 1.304e-06 | 797.66
293.15 K, x1 = 0.09986 | 1.17e-06 | 803.22
293.15 K, x1 = 0.1453 | 1.07e-06 | 808.77
293.15 K, x1 = 0.2138 | 9.37e-07 | 816.42
293.15 K, x1 = 0.2947 | 8.24e-07 | 824.42
293.15 K, x1 = 0.399 | 7.25e-07 | 833.43
293.15 K, x1 = 0.4877 | 6.64e-07 | 840.1
293.15 K, x1 = 0.5965 | 6.09e-07 | 847.24
293.15 K, x1 = 0.6885 | 5.75e-07 | 852.56
293.15 K, x1 = 0.8249 | 5.39e-07 | 859.38
293.15 K, x1 = 0.8772 | 5.26e-07 | 861.72
293.15 K, x1 = 0.9542 | 5.13e-07 | 864.93
303.15 K, x1 = 0.04309 | 1.14e-06 | 786.92
303.15 K, x1 = 0.1038 | 9.89e-07 | 794.71
303.15 K, x1 = 0.2082 | 8.13e-07 | 806.41
303.15 K, x1 = 0.2955 | 7.17e-07 | 814.8
303.15 K, x1 = 0.3926 | 6.39e-07 | 822.94
303.15 K, x1 = 0.497 | 5.82e-07 | 830.54
303.15 K, x1 = 0.5918 | 5.43e-07 | 836.55
303.15 K, x1 = 0.6991 | 5.1e-07 | 842.5
303.15 K, x1 = 0.8103 | 4.86e-07 | 847.89
303.15 K, x1 = 0.8876 | 4.73e-07 | 851.26
303.15 K, x1 = 0.9199 | 4.68e-07 | 852.57
313.15 K, x1 = 0.04639 | 9.59e-07 | 778.57
313.15 K, x1 = 0.1049 | 8.49e-07 | 785.84
313.15 K, x1 = 0.211 | 7.05e-07 | 797.27
313.15 K, x1 = 0.2977 | 6.27e-07 | 805.28
313.15 K, x1 = 0.3787 | 5.75e-07 | 811.92
313.15 K, x1 = 0.4959 | 5.21e-07 | 820.25
313.15 K, x1 = 0.6512 | 4.7e-07 | 829.41
313.15 K, x1 = 0.6979 | 4.62e-07 | 831.83
313.15 K, x1 = 0.8168 | 4.39e-07 | 837.35
313.15 K, x1 = 0.8803 | 4.32e-07 | 840.03
313.15 K, x1 = 0.9384 | 4.23e-07 | 842.37
